Source: PMC6097915 (ACS chemical biology, 2018)
Values after ≈ are worked out from the molar mass of the structure shown. Ends that are not written are not given here.

Tested on: WT MG1655 E. coli
Assay type: cell-based
Conditions: 6-hr period, aerated EZRDM medium, 30°C, by OD, successive two-fold dilutions in 96 well plates

| Molecule | MIC (minimum inhibitory concentration) [µM] |
| --- | --- |
| CC[C@H](C)[C@H](NC(=O)[C@H](CCCCN)NC(=O)[C@H](CCC(=O)O)NC(=O)[C@H](CCCCN)NC(=O)[C@H](CO)NC(=O)[C@H](CCCCN)NC(=O)[C@H](CCCNC(=N)N)NC(=O)[C@H](Cc1ccccc1)NC(=O)[C@H](Cc1ccccc1)NC(=O)[C@H](CC(=O)O)NC(=O)CNC(=O)[C@H](CC(C)C)NC(=O)[C@@H](N)CC(C)C)C(=O)NCC(=O)N[C@@H](CCCCN)C(=O)N[C@@H](CCC(=O)O)C(=O)N[C@@H](Cc1ccccc1)C(=O)N[C@@H](CCCCN)C(=O)N[C@@H](CCCNC(=N)N)C(=O)N[C@H](C(=O)N[C@H](C(=O)N[C@@H](CCC(N)=O)C(=O)N[C@@H](CCCNC(=N)N)C(=O)N[C@H](C(=O)N[C@@H](CCCCN)C(=O)N[C@@H](CC(=O)O)C(=O)N[C@@H](Cc1ccccc1)C(=O)N[C@@H](CC(C)C)C(=O)N[C@@H](CCCNC(=N)N)C(=O)N[C@@H](CC(N)=O)C(=O)N[C@@H](CC(C)C)C(=O)N[C@H](C(=O)N1CCC[C@H]1C(=O)N[C@@H](CCCNC(=N)N)C(=O)N[C@H](C(=O)N[C@@H](CCC(=O)O)C(=O)N[C@@H](CO)C(=O)O)[C@@H](C)O)C(C)C)[C@@H](C)CC)C(C)C)[C@@H](C)CC [LL-37] | 4 (≈ 18 µg/mL) |
| KWKLFKKIEKVGQNIRDGII-KAGPAVAVVGQATQIAK-NH2 [Cecropin A] | 0.9 |
| KWKLFKKIGAVLKVL-NH2 [CM15] | 5 |
